Results as given in patent US20250327028A1, “ENGINEERED PLATELETS AS TARGETED PROTEIN DEGRADERS” (Wisconsin Alumni Research Foundation, priority 2024, published 2025).

Legend:
BRD4 [1] = target: T1, BRD4 (Mus musculus, UniProt Q9ESU6); assay: Immunoblot analysis of BRD4 degradation in 4T1 cells after free HAC treatment; type: cell-based, murine; settings: 4T1 cells
T1 construct: endogenous in cells; host or cells: 4T1
From the text: (§1) Immunoblot analysis: Immunoblot analysis was used to evaluate the expression of BRD4, HSP90, HSP90a, and PD-L1 in 4T1, WT MDA-MB-231, HSP90α-KO MDA-MB-231 or PEA-10 cells after various treatments and also served as the detection method for IP or co-IP experiments. The procedures for preparing IP or co-IP samples were indicated in the relevant experimental parts.
(§2) Sample preparation for various cancer cells after free HAC treatment: Various cells, including 4T1, WT MDA-MB-231, HSP90α-KO MDA-MB-231, or PEA-10 cells, were seeded in 6-well culture plates with a density of 5×10^4 cells in each well and cultured for 24 h. Then, if HAI pretreatment was performed, the cells were incubated in the HAI-containing blank medium at different concentrations for 2 h and washed with PBS twice before the following treatments. The medium in the corresponding wells was replaced with 1 mL of blank medium containing the DMSO vehicle, HACs, or the combinations of various free ligands at the predetermined concentrations. After incubation for the indicated time points, cells were washed with PBS and lysed on ice with the relevant lysis buffer containing PMSF (1 mM) and the phosphatase inhibitor cocktail for 30 min. As for the conditioned medium (CM), the culturing complete medium of the corresponding cancer cells in each well was collected after 24-h incubation and subjected to centrifugation at 2000 rpm for 5 min to obtain the supernatant. The filtrate of the supernatants was collected following filtration over a 0.45 μm filter, serving as the CM. Regarding the cell samples for BRD4 detection, the lysis buffer containing HEPES-KOH (pH=7.5, 10 mM), NaCl (500 mM), EDTA (5 mM), NP-40 (1%), and SDS (0.1%) was used with the indicated PMSF and phosphatase inhibitor cocktail. As for PD-L1 detection, RIPA buffer (Thermo Fisher Scientific/J63306.AP) was used with the indicated PMSF and phosphatase inhibitor cocktail.
General procedures for immunoblot analysis: After a 30-min lysis, the lysates were centrifuged at 10,000 g for 10 minutes at 4° C., and the corresponding supernatants were collected, followed by quantification of the total proteins in the supernatant through the BCA assay. Afterward, the proteins in the supernatant were mixed with the loading buffer and heated at 95° C. for 15 min. Equal amounts of proteins from different samples ([…]) were loaded into the Bis-Tris gel formulated with Bis-Tis buffer, 30% acrylamide/Bis, 10% ammonium persulfate (APS) solution, and TEMED. The separated proteins were transferred to polyvinylidene fluoride (PVDF) membranes before the membranes were blocked with 5% nonfat milk in PBS-T. Next, the PVDF membranes were incubated with primary antibodies overnight at 4° C., if necessary, followed by the incubation with the goat-anti-rabbit IgG H & L (HRP) secondary antibodies at room temperature for 2 h. Finally, the bands were treated with electrochemiluminescence (ECL) western blot substrate, detected by the iBright™ imaging system and quantified with ImageJ software. 8% Bis-Tris gels were used for BRD4 detection, and 10% gels were adopted to analyze PD-L1.

BRD4 [2] = target: T2, BRD4 (Homo sapiens, UniProt O60885); assay: Immunoblot analysis of BRD4 degradation in WT MDA-MB-231 cells after free HAC treatment; type: cell-based; settings: lower or higher effective concentrations, 12 h
T2 construct: endogenous in cells; host or cells: WT MDA-MB-231 (ATCC)
From the text: as §1
as §2, with “Regarding the cell samples for BRD4 detection, the lysis buffer containing HEPES-KOH (pH=7.5, 10 mM), NaCl (500 mM), EDTA (5 mM), NP-40 (1%), and SDS (0.1%) was used with the indicated PMSF and phosphatase inhibitor cocktail. As for PD-L1 detection, RIPA buffer (Thermo Fisher Scientific/J63306.AP) was used with the indicated PMSF and phosphatase inhibitor cocktail.” left out
(§3) General procedures for immunoblot analysis: After a 30-min lysis, the lysates were centrifuged at 10,000 g for 10 minutes at 4° C., and the corresponding supernatants were collected, followed by quantification of the total proteins in the supernatant through the BCA assay. […] Finally, the bands were treated with electrochemiluminescence (ECL) western blot substrate, detected by the iBright™ imaging system and quantified with ImageJ software. […]

BRD4 [3] = target: T1, BRD4; assay: Immunoblot analysis of BRD4 degradation in 4T1 cells after DePLT or PMP treatment; type: cell-based, murine; settings: 2-h HAI pretreatment, 1×10^8 iDePLTs 12 h
Method: as §1
(§4) Sample preparation for 4T1 cells after DePLT treatment: 4T1 cells were seeded in 6-well culture plates with a density 5×10^4 cells in each well and cultured for 24 h. The engineered platelets, including iDePLT and eDePLT, were generated by incubating the fresh platelets in PBS containing iHAC or eHAC at 20 μM for 2 h. The fresh nPLT was used as the control. Then, if HAI pretreatment was performed, the cells were incubated in the HAI-containing blank medium at different concentrations for 2 h and washed with PBS twice before the following treatments. […]
as §3

WT MDA-MB-231 cells = assay: In-gel fluorescence detection of NA-647 internalization in WT MDA-MB-231 cells; type: cell-based, human; settings: WT MDA-MB-231, 2-h HAI at various concentrations prior to HAC-B 5 μM 4 h
Method: In-gel fluorescence detection: In-gel fluorescence was mainly used to investigate the internalization of NeutrAvidin™_647 in HAC-B-treated cancer cells.
Sample preparation: 4T1 or WT MDA-MB-231 cells were seeded in 6-well culture plates with a density of 5×10^4 cells in each well and cultured for 24 h. If HAI pretreatment was performed, the cells were incubated in the HAI-containing blank medium at different concentrations for 2 h and washed with PBS twice before the following treatments. Then, the cells were treated with free HAC-B or the combinations of various ligands at the indicated concentrations for the predetermined time points. Next, the drug-containing medium was removed, and PBS was used to wash the cells twice, followed by incubating the cells in the blank medium containing NeutrAvidin™ DyLight™ 650 (NA-647, Invitrogen/84607) at 0.5 μM for 1 h. Finally, the cells were washed with PBS and lysed on ice with the RIPA buffer containing PMSF (1 mM) and the phosphatase inhibitor cocktail for 30 min. A s for the 4T1 cells cotreated with NA-647 and HAC-B, the cells after 24-h incubation were treated with the blank medium containing NA-647 at 0.5 μM and HAC-B at various concentrations for 2 h before cell lysis.
In-gel fluorescence imaging: After 30-min lysis, the lysates were centrifuged at 10,000 g for 10 minutes at 4° C., and the corresponding supernatants were collected, followed by quantification of the total proteins in the supernatant through the BCA assay. Afterward, the proteins in the supernatant were mixed with ¼ volume of 5× sample buffer formulated by Tris-HCl (pH 6.8, 312.5 mM), sucrose (25%), SDS (10%), bromophenol blue (0.025%), and dithiothreitol (DTT, 250 mM). After incubation for 1 h at room temperature, equal amounts of proteins from different samples ([…] per lane) were loaded into the 12% Bis-Tris gel. After the proteins were separated, the gels were subjected to fluorescence imaging with the ChemiDoc™ MP imaging system (Bio-Rad).

PD-L1 = target: T3, PD-L1 (Mus musculus, UniProt Q9EP73); assay: Immunoblot analysis of PD-L1 degradation in 4T1 cells after eDePLT treatment; type: cell-based, murine; settings: 2-h HAI pretreatment, 1×10^8 eDePLTs 8 h
T3 construct: endogenous in cells; host or cells: 4T1
Method: as §1, §4, §3

T3 sequence (Q9EP73 19-290): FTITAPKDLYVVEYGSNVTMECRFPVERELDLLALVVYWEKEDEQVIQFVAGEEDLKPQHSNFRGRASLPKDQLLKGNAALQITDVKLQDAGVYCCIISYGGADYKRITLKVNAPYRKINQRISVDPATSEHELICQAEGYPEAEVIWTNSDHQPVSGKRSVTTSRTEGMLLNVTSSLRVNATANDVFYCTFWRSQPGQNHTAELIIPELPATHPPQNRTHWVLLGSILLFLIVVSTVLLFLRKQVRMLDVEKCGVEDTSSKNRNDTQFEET

Structure (SMILES) | BRD4 degradation compared to iHAC (BRD4 [1]; lower or higher effective concentrations, 12 h) | BRD4 degradation compared to iHAC (BRD4 [2]) | BRD4 degradation by iHAC after HAI pretreatment (BRD4 [1]; 2-h HAI pretreatment at various concentrations, then iHAC 10 μM 12 h) | BRD4 downregulation by iDePLT after HAI pretreatment of target cells (BRD4 [3]) | NA-647 uptake by HAC-B after HAI preincubation (WT MDA-MB-231 cells) | PD-L1 degradation by eDePLT after HAI pretreatment of target cells (PD-L1)
Cc1sc2c(c1C)C(c1ccc(Cl)cc1)=N[C@H](CC(=O)NCc1cn(CCCC(=O)N(CC#N)S(=O)(=O)c3ccc(C(=O)NCCCn4c(Sc5cc6c(cc5I)OCO6)nc5c(N)ncnc54)cc3)nn1)c1nnc(C)n1-2 [iHACepi, (R)—N-(3-(6-amino-8-((6-iodobenzo[d][1,3]dioxol-5-yl)thio)-9H-purin-9-yl)propyl)-4-(N-(4-(4-((2-(4-(4-chlorophenyl)-2,3,9-trimethyl-6H-thieno[3,2-f][1,2,4]triazolo[4,3-a][1,4]diazepin-6-yl)acetamido)methyl)-1H-1,2,3-triazol-1-yl)butanoyl)-N-(cyanomethyl)sulfamoyl)benzamide] | almost no substantial BRD4 degradation | almost no substantial BRD4 degradation | – | – | – | –
Nc1ncnc2c1nc(Sc1cc3c(cc1I)OCO3)n2CCCNCc1cccc(S(=O)(=O)F)c1 [HAI, 3-(((3-(6-amino-8-((6-iodobenzo[d][1,3]dioxol-5-yl)thio)-9H-purin-9-yl)propyl)amino)methyl)benzenesulfonyl fluoride] | – | – | inferior BRD4 degradation efficacy | failed to relieve BRD4 downregulation | largely compromised NA-647 uptake | failed to rescue the PD-L1 degradation
